# Reference: patent publication US10201586B2 (dated 2019)
# Where two headings read alike, the source gives them in different places. Where a SMILES comes first, the peptide text is derived from it. Bridges are numbered along the chain shown (N, C = ends). [ ]: non-standard residue; d: D form. Aib = CC(C)(N)C(=O)O; Sar = CNCC(=O)O
# Legend:
# [1] = biological target: T1, TFPI (Homo sapiens, UniProt P10646); test: IC50 [nm]
# Target sequence in this assay (P10646 29-304 limits assumed): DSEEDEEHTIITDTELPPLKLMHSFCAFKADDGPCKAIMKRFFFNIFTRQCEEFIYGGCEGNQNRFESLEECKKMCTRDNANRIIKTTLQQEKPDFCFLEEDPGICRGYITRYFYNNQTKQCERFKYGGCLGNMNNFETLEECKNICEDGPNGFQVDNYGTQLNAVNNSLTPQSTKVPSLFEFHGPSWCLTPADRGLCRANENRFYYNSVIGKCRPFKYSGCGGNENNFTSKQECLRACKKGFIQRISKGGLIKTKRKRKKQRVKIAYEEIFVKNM
# [2] = biological target: T1, TFPI; test: % Inhibition @ 2.5µM
# [3] = biological target: T2, Tissue Factor Pathway Inhibitor (TFPI) (Homo sapiens, UniProt P10646); test: IC50 ELISA | IC50 [nM]
# T2 sequence (P10646 29-304 limits assumed): as above
# [4] = biological target: T2, Tissue Factor Pathway Inhibitor (TFPI); test: IC50 ELISA | IC50 [nM]; remark: listed apart in the source
# [5] = biological target: recombinant human full length TFPI (Homo sapiens, UniProt P10646); test: Progression curve | EC50 (µM)
# recombinant human full length TFPI, sequence (P10646 29-304 limits assumed): as above
# [6] = biological target: T1, TFPI; test: IC50 Mean (nM]
# Target sequence in this assay (P10646 29-304 limits assumed): as above
compound,measurement,setting,value
CSCC[C@@H]1NC(=O)CNC(=O)[C@@H](NC(=O)[C@H](Cc2ccccc2)NC(=O)[C@H](Cc2c[nH]c3ccccc23)NC(=O)[C@H](CCCCN)NC(=O)[C@H](Cc2ccc(O)cc2)NC(=O)[C@H](CCCNC(=N)N)NC(=O)[C@H](CO)NC(=O)[C@H](C)NC(=O)CNC(=O)[C@H](CO)NC(C)=O)CSSC[C@@H](C(=O)N[C@H](C(=O)N[C@@H](Cc2c[nH]c3ccccc23)C(=O)N[C@H](C(=O)N[C@@H](CCCCN)C(N)=O)C(C)C)C(C)C)NC(=O)[C@H](CO)NC(=O)[C@H](CCSC)NC(=O)[C@H]([C@@H](C)O)NC(=O)CNC(=O)[C@H](CCCCN)NC(=O)[C@H](CCSC)NC(=O)[C@H](CC(=O)O)NC(=O)[C@H](CCCNC(=N)N)NC1=O [JBT0320 | 1103] (Ac-SGASRYKWFCGMRDMKGTMSCVWVK-NH2; disulfide 10-21),IC50,[1],977 nM
CSCC[C@@H]1NC(=O)CNC(=O)[C@@H](NC(=O)[C@H](Cc2ccccc2)NC(=O)[C@H](Cc2c[nH]c3ccccc23)NC(=O)[C@H](CCCCN)NC(C)=O)CSSC[C@@H](C(=O)N[C@H](C(=O)N[C@@H](Cc2c[nH]c3ccccc23)C(=O)N[C@H](C(=O)N[C@@H](CCCCN)C(=O)N[C@@H](Cc2ccccc2)C(=O)N[C@@H](CCCNC(=N)N)C(=O)N[C@@H](Cc2ccc(O)cc2)C(=O)N[C@@H](CC(=O)O)C(=O)N[C@H](C(=O)N[C@@H](CO)C(N)=O)[C@@H](C)O)C(C)C)C(C)C)NC(=O)[C@H](CO)NC(=O)[C@H](CCSC)NC(=O)[C@H]([C@@H](C)O)NC(=O)CNC(=O)[C@H](CCCCN)NC(=O)[C@H](CCSC)NC(=O)[C@H](CC(=O)O)NC(=O)[C@H](CCCNC(=N)N)NC1=O [JBT0324 | 1155] (Ac-KWFCGMRDMKGTMSCVWVKFRYDTS-NH2; disulfide 4-15),IC50,[1],1930 nM
Ac-SRYKWF[KGMRDMKGTMSD]VWVKF-NH2 (SEQ ID NO: 1243) (Ac-SRYKWFKGMRDMKGTMSDVWVKF-NH2; bridge 7-18; not fully specified) [JBT0623],% Inhibition @ […],[2],3%
CC(=O)N[C@@H](Cc1ccccc1)C(=O)N[C@@H](CCC(N)=O)C(=O)N[C@@H](CO)C(=O)N[C@@H](CCCCN)C(=O)N(C)CC(=O)N[C@@H](CC(N)=O)C(=O)N[C@H](C(=O)N[C@@H](Cc1ccccc1)C(=O)N[C@H](C(=O)N[C@H](C(=O)NCC(=O)N[C@@H](Cc1ccc(O)cc1)C(=O)N[C@@H](Cc1ccccc1)C(=O)N[C@@H](CCC(=O)O)C(=O)N[C@@H](CCCNC(=N)N)C(=O)N[C@@H](CC(C)C)C(=O)NC(C)(C)C(=O)N[C@@H](C)C(=O)N[C@@H](CCCCN)C(=O)N[C@@H](CC(C)C)C(N)=O)[C@@H](C)O)C(C)C)C(C)C [JBT1585 | 4018] (Ac-FQSK[Sar]NVFVTGYFERL[Aib]AKL-NH2),IC50,[3],15.1 nM
Ac-FQSKpNVHV-C(ME-400MA)-GYFERL-Aib-AKL-NH2 [JBT2403 | 4122],IC50,[4],22.9 nM
same,EC50,[5],15.3 nM
Ac-FQSKp-C(ME-400MA)-VHVDGYFERL-Aib-AKL-NH2 [JBT2402 | 4121],IC50,[4],20.5 nM
same,EC50,[5],2.6 nM
Ac-FQSK-dtc-NVHVDGYFERL-Aib-AKL-NH2 [JBT2285 | 4047],IC50,[3],3.44 nM
Ac-K(FAM)KSGVGRLQVAFQSKKNVFVFGYFERLRAKLTSKK-NH2 [JBT0291 | 15],IC50,[6],46 nM
